Assay results published in ChEMBL document CHEMBL3132784, “Synthesis and biological evaluation of new conformationally restricted S-DABO hybrids as non-nucleoside inhibitors of HIV-1 reverse transcriptase” (Medchemcomm, 2014).

Experiments:
[1] = tested on: Human immunodeficiency virus 1; assay: Antiviral activity against HIV-1 RES056 harboring RT K103N+Y181C double mutant infected in human MT4 cells assessed as protection against virus-induced cytopathic effect measured 5 days post-infection by MTT assay; assay type: functional, organism-based; conditions: Human immunodeficiency virus 1, RES056, MT4, 120 h
[2] = tested on: Human immunodeficiency virus 1; assay: Antiviral activity against wild-type HIV-1 3B infected in human MT4 cells assessed as protection against virus-induced cytopathic effect measured 5 days post-infection by MTT assay; assay type: functional, organism-based; conditions: Human immunodeficiency virus 1, 3B, MT4, 120 h
[3] = Selectivity index, ratio of CC50 for human MT4 cells to EC50 for wild-type HIV-1 3B infected in human MT4 cells; assay type: toxicity, cell-based; conditions: read-out: Ratio CC50/EC50
[4] = Cytotoxicity against mock-infected human MT4 cells assessed as decrease in cell viability measured 5 days post-infection by MTT assay; assay type: cell-based
[5] = tested on: Human immunodeficiency virus 2; assay: Antiviral activity against HIV-2 ROD infected in human MT4 cells assessed as protection against virus-induced cytopathic effect measured 5 days post-infection by MTT assay; assay type: functional, organism-based; conditions: Human immunodeficiency virus 2, ROD, MT4, 120 h
[6] = target: Human immunodeficiency virus type 1 reverse transcriptase (Human immunodeficiency virus 1, UniProt Q72547); assay: Inhibition of HIV-1 wild type recombinant reverse transcriptase p66/p51 assessed as RNA-DNA heteroduplex formation using poly(rA) template/oligo(dT)16 primer incubated prior to enzyme addition by spectrofluorometer analysis

| Compound | EC50 [1] [µM] | EC50 [2] [µM] | selectivity ratio [3] | CC50 at 120 h [4] [µM] | EC50 [5] [µM] | IC50 [6] [µM] |
| --- | --- | --- | --- | --- | --- | --- |
| COc1ccc(CSc2nc(C(C#N)c3cccc(F)c3)c(C)c(=O)[nH]2)cc1 (stereo not drawn) | > 173 | 29.1 | 6 | 173 | > 173 | – |
| COc1ccc(CSc2nc(C(C#N)c3ccc(F)cc3)c(C)c(=O)[nH]2)cc1 (stereo not drawn) | – | > 95.2 | < 1 | 95.2 | > 95.2 | – |
| COc1ccc(CSc2nc(C(C#N)c3ccccc3Cl)c(C)c(=O)[nH]2)cc1 (stereo not drawn) | > 116 | 0.49 | 239 | 116 | > 116 | 0.51 |
| COc1ccc(CSc2nc(C(C#N)c3cccc(Cl)c3)c(C)c(=O)[nH]2)cc1 (stereo not drawn) | > 161 | 18 | 9 | 161 | > 161 | – |
| COc1ccc(CSc2nc(C(C#N)c3ccc(Cl)cc3)c(C)c(=O)[nH]2)cc1 (stereo not drawn) | – | > 28.9 | < 1 | 28.9 | > 28.9 | – |
| COc1ccc(CSc2nc(C(C#N)c3ccccc3Br)c(C)c(=O)[nH]2)cc1 (stereo not drawn) | > 86.7 | 0.42 | 208 | 86.7 | > 86.7 | 1.55 |
| COc1ccc(CSc2nc(C(C#N)c3cccc(Br)c3)c(C)c(=O)[nH]2)cc1 (stereo not drawn) | > 156 | 16.3 | 10 | 156 | > 156 | – |
| CCc1c(C(C#N)c2ccccc2F)nc(SCc2ccc(OC)cc2)[nH]c1=O (stereo not drawn) | > 109 | 1.66 | 66 | 109 | > 109 | – |
| CCc1c(C(C#N)c2cccc(F)c2)nc(SCc2ccc(OC)cc2)[nH]c1=O (stereo not drawn) | > 173 | 7.08 | 24 | 173 | > 173 | – |
| CCc1c(C(C#N)c2ccccc2Cl)nc(SCc2ccc(OC)cc2)[nH]c1=O (stereo not drawn) | > 76.9 | 1.34 | 57 | 76.9 | > 76.9 | – |
| CCc1c(C(C#N)c2ccc(Br)cc2)nc(SCc2ccc(OC)cc2)[nH]c1=O (stereo not drawn) | – | > 23.9 | < 1 | 23.9 | > 23.9 | – |
| COc1ccc(CSc2nc(C(C#N)c3ccc(F)cc3)c(C(C)C)c(=O)[nH]2)cc1 (stereo not drawn) | > 137 | 20.4 | 7 | 137 | > 137 | – |
| COc1ccc(CSc2nc(C(C#N)c3ccccc3Cl)c(C(C)C)c(=O)[nH]2)cc1 (stereo not drawn) | > 27.4 | 3.91 | 7 | 27.4 | > 27.4 | – |
| COc1ccc(CSc2nc(C(C#N)c3ccc(Cl)cc3)c(C(C)C)c(=O)[nH]2)cc1 (stereo not drawn) | > 85.2 | > 40.7 | ≤ 2 | 85.2 | > 85.2 | – |
| COc1ccc(CSc2nc(C(C#N)c3ccccc3Br)c(C(C)C)c(=O)[nH]2)cc1 (stereo not drawn) | > 26.7 | 4.46 | 6 | 26.7 | > 26.7 | – |
| COc1ccc(CSc2nc(C(C#N)c3cccc(Br)c3)c(C(C)C)c(=O)[nH]2)cc1 (stereo not drawn) | > 119 | 5.72 | 21 | 119 | > 119 | – |
| COc1ccc(CSc2nc(C(C#N)c3c(Cl)cccc3Cl)c(C)c(=O)[nH]2)cc1 (stereo not drawn) | > 48.8 | 0.19 | 252 | 48.8 | > 48.8 | 0.23 |
| COc1ccc(CSc2nc(C(C#N)c3ccc(Br)cc3F)c(C)c(=O)[nH]2)cc1 (stereo not drawn) | – | > 22.5 | < 1 | 22.5 | > 22.5 | – |
| COc1ccc(CSc2nc(C(C#N)c3c(F)cccc3Cl)c(C)c(=O)[nH]2)cc1 (stereo not drawn) | > 50.1 | 0.091 | 548 | 50.1 | > 50.1 | 0.17 |
| COc1ccc(CSc2nc(C(C#N)c3ccc(F)cc3F)c(C)c(=O)[nH]2)cc1 (stereo not drawn) | > 157 | 20.7 | 8 | 157 | > 157 | – |
| COc1ccc(CSc2nc(C(C#N)c3cc(F)cc(F)c3)c(C)c(=O)[nH]2)cc1 (stereo not drawn) | > 154 | 21.3 | 7 | 154 | > 154 | – |
| CC(C)Nc1cccnc1N1CCN(C(=O)c2cc3cc(NS(C)(=O)=O)ccc3[nH]2)CC1 [DELAVIRDINE] | > 36.2 | – | > 338 | > 36.2 | – | – |
| O=C1Nc2ccc(Cl)cc2[C@@](C#CC2CC2)(C(F)(F)F)O1 [EFAVIRENZ] | – | – | – | > 6.34 | – | – |
| Cc1ccnc2c1NC(=O)c1cccnc1N2C1CC1 [NEVIRAPINE] | – | – | – | > 15 | – | – |
| Nc1ccn([C@H]2CC[C@@H](CO)O2)c(=O)n1 [ZALCITABINE] | – | 0.57 | > 169 | > 94.7 | 1.61 | – |
| Cc1cn([C@H]2C[C@H](N=[N+]=[N-])[C@@H](CO)O2)c(=O)[nH]c1=O [ZIDOVUDINE] | 0.0063 | 0.0064 | > 14400 | > 93.6 | – | – |
